US11964973B2 (priority 2019, dated 2024)
Like-named read-outs stand apart in the source and are kept apart here.

What was measured:
[1] = test system: Human venous whole blood (IFN-γ); assay: Human whole blood IFN-γ assay; assay type: cell-based
Method: Assay 10: Human Whole Blood IFN-γ Assay
Human venous whole blood (22.5 μL per well), obtained from healthy donors, was pre-treated with compounds for one hour at 37° C. in a humidified 95% air/5% CO2 incubator. The blood was stimulated with 2.5 μL anti-human CD3 and anti-CD28 mAb at a final concentration of 1 μg/mL each for 24 hours at 37° C. IFN-γ in the supernatants was measured using AlphLISA kit (Cat #AL217).

human DGKζ = human DGKζ (Homo sapiens (Human), UniProt Q13574); assay: biochemical; assay type: biochemical
human DGKζ, sequence (Q13574 whole entry, looked up): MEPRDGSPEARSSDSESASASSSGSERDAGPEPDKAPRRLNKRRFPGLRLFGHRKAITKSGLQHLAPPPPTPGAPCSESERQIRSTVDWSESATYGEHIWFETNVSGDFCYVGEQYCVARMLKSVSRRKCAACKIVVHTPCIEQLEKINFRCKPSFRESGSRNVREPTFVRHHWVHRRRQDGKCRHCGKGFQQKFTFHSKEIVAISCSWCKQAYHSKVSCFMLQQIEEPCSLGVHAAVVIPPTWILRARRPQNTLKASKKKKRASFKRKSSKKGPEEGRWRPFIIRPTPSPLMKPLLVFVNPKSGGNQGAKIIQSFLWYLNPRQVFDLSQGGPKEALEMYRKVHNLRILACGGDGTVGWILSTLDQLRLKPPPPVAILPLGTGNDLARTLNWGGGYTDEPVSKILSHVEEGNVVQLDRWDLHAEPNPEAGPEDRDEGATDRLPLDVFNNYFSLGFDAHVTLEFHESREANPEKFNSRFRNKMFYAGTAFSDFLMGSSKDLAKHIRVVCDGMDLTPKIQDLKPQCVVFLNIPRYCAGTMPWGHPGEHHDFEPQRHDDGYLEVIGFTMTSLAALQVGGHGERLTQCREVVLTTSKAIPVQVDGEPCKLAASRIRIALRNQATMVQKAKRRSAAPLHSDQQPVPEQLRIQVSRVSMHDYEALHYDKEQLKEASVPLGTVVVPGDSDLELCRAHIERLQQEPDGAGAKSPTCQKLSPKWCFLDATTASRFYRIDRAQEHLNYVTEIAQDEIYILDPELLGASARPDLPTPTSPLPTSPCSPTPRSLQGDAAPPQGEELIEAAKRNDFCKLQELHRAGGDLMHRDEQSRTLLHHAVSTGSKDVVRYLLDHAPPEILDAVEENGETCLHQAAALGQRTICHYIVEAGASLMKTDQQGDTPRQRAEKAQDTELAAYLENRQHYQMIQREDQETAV

DGKα = DGKα (Homo sapiens (Human), UniProt P23743); assay: biochemical; assay type: biochemical
DGKα, sequence (P23743 whole entry, looked up): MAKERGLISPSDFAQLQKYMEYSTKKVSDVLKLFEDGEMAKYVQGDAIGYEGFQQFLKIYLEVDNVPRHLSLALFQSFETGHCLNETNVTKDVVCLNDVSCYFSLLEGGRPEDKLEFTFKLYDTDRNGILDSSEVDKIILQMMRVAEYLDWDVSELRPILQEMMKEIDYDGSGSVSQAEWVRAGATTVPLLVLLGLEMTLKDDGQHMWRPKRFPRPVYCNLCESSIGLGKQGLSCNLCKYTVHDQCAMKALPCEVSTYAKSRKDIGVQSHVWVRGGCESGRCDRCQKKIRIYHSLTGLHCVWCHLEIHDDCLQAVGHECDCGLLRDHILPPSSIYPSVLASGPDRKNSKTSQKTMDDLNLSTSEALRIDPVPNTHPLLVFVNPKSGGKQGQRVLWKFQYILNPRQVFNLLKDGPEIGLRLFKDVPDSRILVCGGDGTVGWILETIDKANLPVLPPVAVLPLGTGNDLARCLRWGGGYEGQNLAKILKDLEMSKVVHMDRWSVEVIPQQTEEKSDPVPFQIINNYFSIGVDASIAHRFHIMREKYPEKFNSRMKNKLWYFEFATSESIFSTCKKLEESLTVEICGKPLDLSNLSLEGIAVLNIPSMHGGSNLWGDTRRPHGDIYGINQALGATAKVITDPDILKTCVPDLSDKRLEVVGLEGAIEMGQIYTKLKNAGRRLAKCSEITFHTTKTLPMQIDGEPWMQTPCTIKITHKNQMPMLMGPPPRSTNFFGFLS

[2] = Homo sapiens, 24 h, human whole blood, anti-CD3 plus anti-CD28, 24 hours, read-out: INFg Whole Blood Normalized Agonist EC50
[3] = human whole blood, anti-CD3 plus anti-CD28, 24 hours, read-out: INFg Whole Blood Normalized Agonist EC50
[4] = liposome (LIPGLO) assay, read-out: DGKζ LIPGLO IC50
[5] = liposome (LIPGLO) assay, read-out: DGKα LIPGLO IC50
[6] = read-out: INFg Whole Blood Normalized Agonist EC50, human whole blood, anti-CD3 plus anti-CD28, 24 hours

SMILES | EC50 [1, 2] | IC50 (human DGKζ; [4]) | IC50 (DGKα; [5]) | further results
Cc1cccc(O[C@@H]2CCN(c3cc(=O)n(C)c4ccc(C#N)nc34)C[C@H]2C)c1 [Example 107, 5-methyl-8-((3R,4R)-3-methyl-4-(m-tolyloxy)piperidin-1-yl)-6-oxo-5,6-dihydro-1,5-naphthyridine-2-carbonitrile] | 13 µM | – | – | IC50 (human DGKζ; DGKζ LIPGLO IC50): 24 µM; IC50 (DGKα; DGKα LIPGLO IC50): 130 nM
CC[C@@H]1CN(c2cc(=O)n(C)c3ccc(C#N)nc23)CC[C@H]1Oc1ccc(OC(C)(C)C)cc1 (single isomer, unassigned) [Example 160] | – | 3.3 µM | 1700 nM | EC50 [1, 3]: 4.5 µM
Cn1c(=O)cc(N2CCC(Oc3nncc4ccccc34)CC2)c2nc(C#N)ccc21 [Example 75, 5-methyl-6-oxo-8-(4-(phthalazin-1-yloxy)piperidin-1-yl)-5,6-dihydro-1,5-naphthyridine-2-carbonitrile] | 20 µM | 18 µM | 27000 nM | –
C[C@@H]1CN(c2cc(=O)n(C)c3ccc(C#N)nc23)CC[C@@H]1Oc1cccc(C2CC2)c1 [Example 179, 8-((3R,4S)-4-(3-cyclopropylphenoxy)-3-methylpiperidin-1-yl)-5-methyl-6-oxo-5,6-dihydro-1,5-naphthyridine-2-carbonitrile] | 2.4 µM | 1.2 µM | 69 nM | –
CC(C)c1ccc(O[C@H]2CCN(c3cc(=O)n(C)c4ccc(C#N)nc34)C[C@H]2C)cc1 [Example 182, 8-((3R,4S)-4-(4-isopropylphenoxy)-3-methylpiperidin-1-yl)-5-methyl-6-oxo-5,6-dihydro-1,5-naphthyridine-2-carbonitrile] | – | 1.8 µM | 1100 nM | EC50 [1, 3]: 2.8 µM
C[C@@H]1CN(c2cc(=O)n(C)c3ccc(C#N)nc23)CC[C@H]1Oc1cccc(C2CC2)c1 [Example 91, 8-((3R,4R)-4-(3-cyclopropylphenoxy)-3-methylpiperidin-1-yl)-5-methyl-6-oxo-5,6-dihydro-1,5-naphthyridine-2-carbonitrile] | 4.4 µM | 14 µM | 65 nM | –
CC(C)c1ccc(O[C@@H]2CCN(c3cc(=O)n(C)c4ccc(C#N)nc34)C[C@H]2C)cc1 (single isomer, unassigned) [Example 96] | – | 20 µM | 57 nM | EC50 [1, 3]: 2.6 µM
Cn1c(=O)cc(N2CCC(Oc3ccc(C(C)(C)C)nn3)CC2)c2nc(C#N)ccc21 [Example 68, 8-(4-((6-(tert-butyl)pyridazin-3-yl)oxy)piperidin-1-yl)-5-methyl-6-oxo-5,6-dihydro-1,5-naphthyridine-2-carbonitrile] | 9.6 µM | 1.7 µM | 1700 nM | –
CC[C@@H]1CN(c2cc(=O)n(C)c3ccc(C#N)nc23)CC[C@H]1Oc1ccc(OC(C)(C)C)cc1 (single isomer, unassigned) [Example 159] | 4.2 µM | 2.3 µM | 130 nM | –
Cc1cc(OC2CCN(c3cc(=O)n(C)c4ccc(C#N)nc34)CC2)ccc1C(C)C [Example 60, 8-(4-(4-isopropyl-3-methylphenoxy)piperidin-1-yl)-5-methyl-6-oxo-5,6-dihydro-1,5-naphthyridine-2-carbonitrile] | 7.9 µM | 5.5 µM | 240 nM | –
CC[C@@H]1CN(c2cc(=O)n(C)c3ccc(C#N)nc23)CC[C@H]1Oc1cccc(C(F)(F)F)c1 (single isomer, unassigned) [Example 142] | – | 1.1 µM | 4700 nM | EC50 [1, 3]: 3 µM
Cn1c(=O)cc(N2CCC(Oc3ccc4c(c3)CCCC4)CC2)c2nc(C#N)ccc21 [Example 61, 5-methyl-6-oxo-8-(4-((5,6,7,8-tetrahydronaphthalen-2-yl)oxy)piperidin-1-yl)-5,6-dihydro-1,5-naphthyridine-2-carbonitrile] | 8.5 µM | 4.7 µM | 730 nM | –
Cc1cc(OC2CCN(c3cc(=O)n(C)c4ccc(C#N)nc34)CC2)nc(C)n1 [Example 70, 8-(4-((2,6-dimethylpyrimidin-4-yl)oxy)piperidin-1-yl)-5-methyl-6-oxo-5,6-dihydro-1,5-naphthyridine-2-carbonitrile] | 20 µM | 11 µM | 12000 nM | –
CC(C)c1ccc(O[C@H]2CCN(c3cc(=O)n(C)c4ccc(C#N)nc34)C[C@H]2C)cc1 (single isomer, unassigned) [Example 184] | – | – | – | EC50 ([1]; human whole blood IFN-γ, read-out: INFg Whole Blood): 4 µM; IC50 (human DGKζ; Table A, liposome (LIPGLO) assay, read-out: DGKζ): 6 µM; IC50 (DGKα; Table A, liposome (LIPGLO) assay, read-out: DGKα): 1400 nM
C[C@@H]1CN(c2cc(=O)n(C)c3ccc(C#N)nc23)CC[C@H]1Oc1ccc(C2CCCC2)cc1 (single isomer, unassigned) [Example 102] | – | 83 µM | 68 nM | EC50 [1, 3]: 3.3 µM
Cc1cccc(O[C@@H]2CCN(c3cc(=O)n(C)c4ccc(C#N)nc34)C[C@H]2C)c1 (single isomer, unassigned) [Example 108] | 3 µM | 11 µM | 910 nM | –
Cn1c(=O)cc(N2CCC(Oc3cnc4ccccc4n3)CC2)c2nc(C#N)ccc21 [Example 69, 5-methyl-6-oxo-8-(4-(quinoxalin-2-yloxy)piperidin-1-yl)-5,6-dihydro-1,5-naphthyridine-2-carbonitrile] | 17 µM | 1.4 µM | 5700 nM | –
C[C@@H]1CN(c2cc(=O)n(C)c3ccc(C#N)nc23)CC[C@H]1Oc1ccc(C(F)(F)F)cc1F [Example 112, 8-((3R,4R)-4-(2-fluoro-4-(trifluoromethyl)phenoxy)-3-methylpiperidin-1-yl)-5-methyl-6-oxo-5,6-dihydro-1,5-naphthyridine-2-carbonitrile] | 4.1 µM | 7.5 µM | 340 nM | –
CC[C@@H]1CN(c2cc(=O)n(C)c3ccc(C#N)nc23)CC[C@H]1Oc1ccc(OC(C)(C)C)cc1 [Example 158, 8-((3R,4R)-4-(4-(tert-butoxy)phenoxy)-3-ethylpiperidin-1-yl)-5-methyl-6-oxo-5,6-dihydro-1,5-naphthyridine-2-carbonitrile] | 2 µM | – | – | IC50 (human DGKζ; read-out: DGKζ LIPGLO IC50): 1.9 µM; IC50 (DGKα; read-out: DGKα LIPGLO IC50): 360 nM
Cc1cccc(O[C@@H]2CCN(c3cc(=O)n(C)c4ccc(C#N)nc34)C[C@H]2C)c1 (single isomer, unassigned) [Example 109] | – | 29 µM | 120 nM | EC50 [1, 3]: 4.2 µM
Cn1c(=O)cc(N2CCC(Oc3ccc(C4CCCC4)cc3)CC2)c2nc(C#N)ccc21 [Example 58, 8-(4-(4-cyclopentylphenoxy)piperidin-1-yl)-5-methyl-6-oxo-5,6-dihydro-1,5-naphthyridine-2-carbonitrile] | 5.9 µM | 2.9 µM | 340 nM | –
CCC(C)(C)c1ccc(O[C@@H]2CCN(c3cc(=O)n(C)c4ccc(C#N)nc34)C[C@H]2C)cc1 [Example 82, 5-methyl-8-((3R,4R)-3-methyl-4-(4-(tert-pentyl)phenoxy)piperidin-1-yl)-6-oxo-5,6-dihydro-1,5-naphthyridine-2-carbonitrile] | 0.65 µM | – | – | IC50 (human DGKζ; read-out: DGKζ LIPGLO IC50): 3.9 µM; IC50 (DGKα; read-out: DGKα LIPGLO IC50): 30 nM
CCC(C)(C)c1ccc(OC2CCN(c3cc(=O)n(C)c4ccc(C#N)nc34)CC2)cc1 [Example 54, 5-methyl-6-oxo-8-(4-(4-(tert-pentyl)phenoxy)piperidin-1-yl)-5,6-dihydro-1,5-naphthyridine-2-carbonitrile] | 2.3 µM | 2.1 µM | 540 nM | –
CC[C@@H]1CN(c2cc(=O)n(C)c3ccc(C#N)nc23)CC[C@@H]1Oc1cccc(C(C)(C)C)c1 [Example 166, 8-((3R,4S)-4-(3-(tert-butyl)phenoxy)-3-ethylpiperidin-1-yl)-5-methyl-6-oxo-5,6-dihydro-1,5-naphthyridine-2-carbonitrile] | – | 1.6 µM | 46 nM | EC50 [1, 6]: 0.79 µM
CC(C)c1cccc(O[C@@H]2CCN(c3cc(=O)n(C)c4ccc(C#N)nc34)C[C@H]2C)c1 [Example 122, 8-((3R,4R)-4-(3-isopropylphenoxy)-3-methylpiperidin-1-yl)-5-methyl-6-oxo-5,6-dihydro-1,5-naphthyridine-2-carbonitrile] | 5.8 µM | 28 µM | 17 nM | –
CC[C@@H]1CN(c2cc(=O)n(C)c3ccc(C#N)nc23)CC[C@@H]1Oc1cccc(C(C)(C)C)c1 [Example 165, 8-((3R,4S)-4-(3-(tert-butyl)phenoxy)-3-ethylpiperidin-1-yl)-5-methyl-6-oxo-5,6-dihydro-1,5-naphthyridine-2-carbonitrile] | – | 1.2 µM | 96 nM | EC50 [1, 6]: 0.84 µM
CCCc1ccc(OC2CCN(c3cc(=O)n(C)c4ccc(C#N)nc34)CC2)cc1 [Example 57, 5-methyl-6-oxo-8-(4-(4-propylphenoxy)piperidin-1-yl)-5,6-dihydro-1,5-naphthyridine-2-carbonitrile] | 4.3 µM | 6.1 µM | 730 nM | –
Cc1ccc(O[C@@H]2CCN(c3cc(=O)n(C)c4ccc(C#N)nc34)C[C@H]2C)cc1 (single isomer, unassigned) [Example 121] | – | 9.9 µM | 1800 nM | EC50 [1, 3]: 6.7 µM
